Laboratory results: patent US10889553B2, “Asymmetric triazole benzamide derivatives and the compositions and methods of treatment regarding the same” (NysnoBio Ireland DAC, priority 2017, dated 2021)
Where two headings read alike, the source gives them in different places.

Columns and labels:
CDK6/CyclinD1 = CDK6/CyclinD1 (Homo sapiens, UniProt Q00534); assay: Kinase panel assay; format: biochemical
Text: (§1) Compound 42 was also screened in a kinase panel assay.

PIM1 = PIM1 (Homo sapiens, UniProt P11309); assay: Kinase panel assay; format: biochemical
Text: as §1

MAPK3 (ERK1) = MAPK3 (ERK1) (Homo sapiens, UniProt P27361); assay: Kinase panel assay; format: biochemical
Text: as §1

MAPK14 (p38 alpha) = MAPK14 (p38 alpha) (Homo sapiens, UniProt Q16539); assay: Kinase panel assay; format: biochemical
MAPK14 (p38 alpha), sequence (Q16539 whole entry, species assumed): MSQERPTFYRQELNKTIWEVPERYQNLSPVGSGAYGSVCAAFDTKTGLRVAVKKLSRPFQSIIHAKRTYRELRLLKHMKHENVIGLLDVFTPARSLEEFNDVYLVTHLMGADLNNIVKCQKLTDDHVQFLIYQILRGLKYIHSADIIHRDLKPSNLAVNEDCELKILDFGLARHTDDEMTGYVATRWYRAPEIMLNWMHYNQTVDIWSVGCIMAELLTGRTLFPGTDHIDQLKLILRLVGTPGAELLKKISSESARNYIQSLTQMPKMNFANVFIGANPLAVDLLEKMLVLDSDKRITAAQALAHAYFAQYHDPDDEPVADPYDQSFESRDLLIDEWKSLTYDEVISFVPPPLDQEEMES
Text: as §1

PAK4 = PAK4 (Homo sapiens, UniProt O96013); assay: Kinase panel assay; format: biochemical
Text: as §1

MAPK1 (ERK2) = MAPK1 (ERK2) (Homo sapiens, UniProt P28482); assay: Kinase panel assay; format: biochemical
Text: as §1

ABL1 = ABL1 (Homo sapiens, UniProt P00519); assay: Kinase panel assay; format: biochemical
ABL1, sequence (P00519 whole entry, species assumed): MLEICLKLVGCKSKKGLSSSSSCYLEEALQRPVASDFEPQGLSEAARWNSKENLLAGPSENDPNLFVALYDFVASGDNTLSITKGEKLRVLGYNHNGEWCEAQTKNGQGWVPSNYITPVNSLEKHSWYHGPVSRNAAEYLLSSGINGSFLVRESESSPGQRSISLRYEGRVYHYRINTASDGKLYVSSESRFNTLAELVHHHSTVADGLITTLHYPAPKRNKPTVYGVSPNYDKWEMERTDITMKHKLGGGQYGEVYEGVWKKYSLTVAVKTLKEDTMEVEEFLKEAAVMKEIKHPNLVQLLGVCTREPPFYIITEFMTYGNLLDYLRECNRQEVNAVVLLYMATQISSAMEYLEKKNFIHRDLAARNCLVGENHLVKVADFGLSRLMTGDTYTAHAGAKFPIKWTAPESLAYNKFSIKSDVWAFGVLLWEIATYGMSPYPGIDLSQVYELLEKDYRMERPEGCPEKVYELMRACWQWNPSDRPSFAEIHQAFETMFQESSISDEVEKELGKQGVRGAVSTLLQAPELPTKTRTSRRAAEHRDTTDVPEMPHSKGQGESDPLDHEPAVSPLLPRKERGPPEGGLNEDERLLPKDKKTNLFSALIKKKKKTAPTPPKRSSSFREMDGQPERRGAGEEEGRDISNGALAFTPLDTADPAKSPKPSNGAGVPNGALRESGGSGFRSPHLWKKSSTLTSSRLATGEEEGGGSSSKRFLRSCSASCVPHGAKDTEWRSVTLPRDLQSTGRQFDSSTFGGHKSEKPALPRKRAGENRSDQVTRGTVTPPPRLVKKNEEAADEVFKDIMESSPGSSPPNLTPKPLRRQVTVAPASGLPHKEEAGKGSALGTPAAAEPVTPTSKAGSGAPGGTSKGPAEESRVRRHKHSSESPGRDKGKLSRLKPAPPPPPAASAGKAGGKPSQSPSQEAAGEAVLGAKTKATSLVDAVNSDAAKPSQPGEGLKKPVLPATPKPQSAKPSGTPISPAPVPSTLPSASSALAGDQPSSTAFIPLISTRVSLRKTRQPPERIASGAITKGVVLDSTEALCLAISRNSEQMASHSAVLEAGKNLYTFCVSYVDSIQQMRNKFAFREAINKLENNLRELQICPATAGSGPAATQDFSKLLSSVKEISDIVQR
Text: as §1

CDK4/CyclinD1 = CDK4/CyclinD1 (Homo sapiens, UniProt P11802); assay: Kinase panel assay; format: biochemical
CDK4/CyclinD1, sequence (P11802 whole entry, species assumed): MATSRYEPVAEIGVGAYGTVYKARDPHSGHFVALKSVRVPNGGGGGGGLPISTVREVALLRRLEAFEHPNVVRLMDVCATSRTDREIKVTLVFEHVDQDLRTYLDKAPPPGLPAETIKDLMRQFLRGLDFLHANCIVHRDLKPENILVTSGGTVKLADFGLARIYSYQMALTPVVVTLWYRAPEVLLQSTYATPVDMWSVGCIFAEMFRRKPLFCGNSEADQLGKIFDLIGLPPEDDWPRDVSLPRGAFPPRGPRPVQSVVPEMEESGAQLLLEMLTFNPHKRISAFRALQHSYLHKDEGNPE
CDK4/CyclinD1, sequence (P24385 whole entry partner, species assumed): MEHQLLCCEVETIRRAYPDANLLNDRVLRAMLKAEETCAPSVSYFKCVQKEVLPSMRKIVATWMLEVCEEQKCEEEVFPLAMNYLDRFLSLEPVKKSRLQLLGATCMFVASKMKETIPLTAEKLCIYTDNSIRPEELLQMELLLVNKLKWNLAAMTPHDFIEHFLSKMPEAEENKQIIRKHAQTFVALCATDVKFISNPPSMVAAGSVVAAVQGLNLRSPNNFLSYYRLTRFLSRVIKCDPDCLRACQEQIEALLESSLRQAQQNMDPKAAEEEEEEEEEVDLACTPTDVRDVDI
Text: as §1

CDK2/Cyclin A = CDK2/Cyclin A (Homo sapiens, UniProt P24941); assay: Kinase panel assay; format: biochemical
Text: as §1

PLK1 = PLK1 (Homo sapiens, UniProt P53350); assay: Kinase panel assay; format: biochemical
Text: as §1

GSK3B (GSK3 beta) = GSK3B (GSK3 beta) (Homo sapiens, UniProt P49841); assay: Kinase panel assay; format: biochemical
GSK3B (GSK3 beta), sequence (P49841 whole entry, species assumed): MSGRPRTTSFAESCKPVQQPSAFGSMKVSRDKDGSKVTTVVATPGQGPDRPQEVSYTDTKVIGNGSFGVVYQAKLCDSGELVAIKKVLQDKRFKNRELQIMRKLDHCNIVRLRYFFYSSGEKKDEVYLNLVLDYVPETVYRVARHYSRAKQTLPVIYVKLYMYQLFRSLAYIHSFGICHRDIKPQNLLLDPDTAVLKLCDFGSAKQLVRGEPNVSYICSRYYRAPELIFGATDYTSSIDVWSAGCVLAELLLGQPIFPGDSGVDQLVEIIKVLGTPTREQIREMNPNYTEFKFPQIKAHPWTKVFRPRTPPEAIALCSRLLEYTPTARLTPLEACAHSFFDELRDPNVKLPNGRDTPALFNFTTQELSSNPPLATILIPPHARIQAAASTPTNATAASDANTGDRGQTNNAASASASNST
Text: as §1

CDK4/CyclinD3 = CDK4/CyclinD3 (Homo sapiens, UniProt P11802); assay: Kinase panel assay; format: biochemical
CDK4/CyclinD3, sequence (P11802 whole entry, species assumed): as the sequence (P11802 whole entry, species assumed) above
CDK4/CyclinD3, sequence (P30281 whole entry partner, species assumed): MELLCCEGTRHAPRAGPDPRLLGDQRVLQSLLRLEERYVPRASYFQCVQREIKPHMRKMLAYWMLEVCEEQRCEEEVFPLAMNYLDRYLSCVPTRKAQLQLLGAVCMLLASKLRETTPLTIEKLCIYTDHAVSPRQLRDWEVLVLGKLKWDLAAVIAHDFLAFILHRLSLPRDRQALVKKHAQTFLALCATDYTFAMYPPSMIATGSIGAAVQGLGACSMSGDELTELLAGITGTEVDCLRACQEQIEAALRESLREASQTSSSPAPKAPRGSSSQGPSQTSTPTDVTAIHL
Text: as §1

EGFR (ErbB1) = EGFR (ErbB1) (Homo sapiens, UniProt P00533); assay: Kinase panel assay; format: biochemical
EGFR (ErbB1), sequence (P00533 25-1210, species assumed): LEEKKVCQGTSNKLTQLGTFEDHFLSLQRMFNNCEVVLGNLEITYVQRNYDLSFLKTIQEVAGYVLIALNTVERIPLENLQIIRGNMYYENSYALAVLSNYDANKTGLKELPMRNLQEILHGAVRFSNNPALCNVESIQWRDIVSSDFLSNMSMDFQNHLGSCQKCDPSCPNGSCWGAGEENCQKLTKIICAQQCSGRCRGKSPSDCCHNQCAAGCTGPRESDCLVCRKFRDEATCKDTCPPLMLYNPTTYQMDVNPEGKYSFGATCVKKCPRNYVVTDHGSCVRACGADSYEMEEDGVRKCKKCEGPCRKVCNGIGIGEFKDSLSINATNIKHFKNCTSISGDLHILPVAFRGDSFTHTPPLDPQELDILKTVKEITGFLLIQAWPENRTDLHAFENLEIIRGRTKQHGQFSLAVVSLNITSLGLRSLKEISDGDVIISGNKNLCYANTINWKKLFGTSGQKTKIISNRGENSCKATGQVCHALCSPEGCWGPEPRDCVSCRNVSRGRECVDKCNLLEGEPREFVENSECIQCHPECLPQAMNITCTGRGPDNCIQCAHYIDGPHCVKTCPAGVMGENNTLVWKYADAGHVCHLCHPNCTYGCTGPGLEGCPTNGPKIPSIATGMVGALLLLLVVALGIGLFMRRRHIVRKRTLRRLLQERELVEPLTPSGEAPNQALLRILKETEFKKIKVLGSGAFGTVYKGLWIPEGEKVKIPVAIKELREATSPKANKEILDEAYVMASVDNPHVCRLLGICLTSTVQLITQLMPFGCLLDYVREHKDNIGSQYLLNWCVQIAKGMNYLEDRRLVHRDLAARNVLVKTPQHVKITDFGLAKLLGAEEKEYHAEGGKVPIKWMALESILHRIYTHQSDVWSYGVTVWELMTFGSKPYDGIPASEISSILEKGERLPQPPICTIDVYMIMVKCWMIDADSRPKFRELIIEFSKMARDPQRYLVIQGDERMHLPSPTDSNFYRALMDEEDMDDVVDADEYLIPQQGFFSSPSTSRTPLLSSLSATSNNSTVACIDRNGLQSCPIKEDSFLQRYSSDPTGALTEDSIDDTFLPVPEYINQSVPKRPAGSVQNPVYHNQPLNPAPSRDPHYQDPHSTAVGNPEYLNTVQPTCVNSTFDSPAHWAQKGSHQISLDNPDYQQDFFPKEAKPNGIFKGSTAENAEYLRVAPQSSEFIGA
Text: as §1

AURKA (Aurora A) = AURKA (Aurora A) (Homo sapiens, UniProt O14965); assay: Kinase panel assay; format: biochemical
AURKA (Aurora A), sequence (O14965 whole entry, species assumed): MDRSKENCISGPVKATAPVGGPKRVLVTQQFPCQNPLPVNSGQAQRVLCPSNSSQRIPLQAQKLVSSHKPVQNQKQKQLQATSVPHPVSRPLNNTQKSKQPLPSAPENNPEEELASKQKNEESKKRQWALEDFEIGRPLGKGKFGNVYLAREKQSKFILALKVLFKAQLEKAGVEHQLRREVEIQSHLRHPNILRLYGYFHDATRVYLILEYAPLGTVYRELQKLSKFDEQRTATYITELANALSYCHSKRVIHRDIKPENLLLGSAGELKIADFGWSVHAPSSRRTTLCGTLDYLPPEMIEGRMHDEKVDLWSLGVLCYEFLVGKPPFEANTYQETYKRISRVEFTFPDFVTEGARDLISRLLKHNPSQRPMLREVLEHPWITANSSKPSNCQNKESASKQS
Text: as §1

[1] = Oral bioavailability (PO) and pharmacokinetics assay; format: in vivo, mice; conditions: mouse
Experimental: The pharmacokinetics and oral bioavailability of various compounds was evaluated following IV or PO administration to fasted male Sprague-Dawley […] (N=3/route/dose). […] For IV dosing, each compound was formulated in 10% DMA/15% Solutol/75% HPβ-CD (20%) as a 1 mg/mL solution for IV (3 mg/kg), for IP (5 mg/kg) and for PO (10 mg/kg) administrations.
Blood samples (0.250 mL) were collected into EDTA tubes then processed to generate plasma samples. Blood samples were collected at pre-dose, 0.083, 0.25, 0.5, 1, 2, 4, 8 and 24 hours post-dose administration. Plasma concentrations of each compound were determined using LC-MS/MS with a lower limit of quantitation of 1.0 ng/mL. The pharmacokinetic parameters were determined by non-compartmental methods using WinNonlin.
The pharmacokinetic parameters of each compound were determined by non-compartmental analysis (Model 201 for IV administration and Model 200 for PO administration) using WinNonlin Version 6.4 (Pharsight, Mountain View, Calif.). The area under the curve from the time of dosing to the last measurable concentration, AUC(0-t), was calculated by the linear trapezoidal rule. The area under the concentration-time curve extrapolated to infinity, AUC(0-∞), was calculated as follows: AUC(0-∞)=AUC(0-t)+Clast/k
Where Clast is the last measurable concentration and k is the first order rate constant associated with the terminal elimination phase, estimated by linear regression of log concentration versus time. The half-life (T1/2) of the terminal elimination phase was estimated based on the following equation: T1/2=0.693/k
K was determined based on at least three timepoints with R^2≥0.9. Additional parameters were calculated as follows: CL=Dose/AUC(0-∞)
Where CL is the clearance of the compound of the disclosure in L/hr/kg, Dose is the administered dose in mg/kg. Mean residence time (MRT) was calculated as follows: MRT=AUMC(0-∞)/AUC(0-∞)
Where area under the first moment curve extrapolated to infinity (AUMC0-∞)) was calculated as follows: AUMC(0-∞)=AUMClast+tlast*[…]+Clast/k^2
The steady state volume of distribution (Vss) was calculated as follows: Vss=CL×MRT.
The oral bioavailability based on AUC(0-t) was calculated as follows: F(%)=AUCPO/AUCIV×DoseIV/DosePO×100. For IV administration, the initial concentration, Co is reported and is an extrapolated value. For PO administration, the maximum concentration, Cmax is report and is an observed value.

[2] = male, Sprague-Dawley, plasma, IP (5 mg/kg)
[3] = male, Sprague-Dawley, plasma, IV bolus (3 mg/kg)
[4] = male, Sprague-Dawley, plasma, PO (10 mg/kg)

CDK6/CyclinD1, sequence (Q00534 whole entry, species assumed): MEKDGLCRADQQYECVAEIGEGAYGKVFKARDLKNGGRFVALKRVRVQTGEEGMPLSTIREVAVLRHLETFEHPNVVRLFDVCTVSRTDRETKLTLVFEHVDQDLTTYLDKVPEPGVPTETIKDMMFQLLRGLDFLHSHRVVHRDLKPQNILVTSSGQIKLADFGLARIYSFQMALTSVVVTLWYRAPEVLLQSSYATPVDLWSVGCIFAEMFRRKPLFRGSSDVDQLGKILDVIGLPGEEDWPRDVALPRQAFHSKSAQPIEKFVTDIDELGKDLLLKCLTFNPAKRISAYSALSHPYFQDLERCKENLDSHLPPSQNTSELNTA
CDK6/CyclinD1, sequence (P24385 whole entry partner, species assumed): as the sequence (P24385 whole entry partner, species assumed) above

With `Cc1ccccc1C(=O)Nc1nc(NC(=O)c2ccccc2C)n(-c2ccc(OC(F)(F)F)cc2)n1` [Compound 42, N,N′-(1-(4-(trifluoromethoxy)phenyl)-1H-1,2,4-triazole-3,5-diyl)bis(2-methylbenzamide)] the inhibition at 10 µM (CDK6/CyclinD1) was 0%, the inhibition at 10 µM (PIM1) was 5% and the inhibition at 10 µM (MAPK3 (ERK1)) was 1%. It also gave an inhibition at 10 µM (MAPK14 (p38 alpha)) of 19%, an inhibition at 10 µM (PAK4) of 5% and an inhibition at 10 µM (MAPK1 (ERK2)) of 4%. For the same compound, the inhibition at 10 µM (ABL1) was 8%, the inhibition at 10 µM (CDK4/CyclinD1) was 12% and the inhibition at 10 µM (CDK2/Cyclin A) was 4%. For the same compound, the inhibition at 10 µM (PLK1) was 4%, the inhibition at 10 µM (GSK3B (GSK3 beta)) was 12% and the inhibition at 10 µM (CDK4/CyclinD3) was 3%. For the same compound, the inhibition at 10 µM (EGFR (ErbB1)) was 8%, the inhibition at 10 µM (AURKA (Aurora A)) was 4% and the bioavailability ([1]; male, Sprague-Dawley, plasma, intraperitoneal, 5 mg/kg, IP (5 mg/kg) vs IV, read-out: F (%)) was 50.3%. For the same compound, the half-life ([1]; male, Sprague-Dawley, plasma, ip, 5 mg/kg, IP (5 mg/kg)) was 47 h, the half-life ([1]; male, Sprague-Dawley, plasma, iv, 3 mg/kg) was 16 h and the half-life ([1]; male, Sprague-Dawley, plasma, iv, 3 mg/kg, IV bolus (3 mg/kg)) was 16.4 h. The Vd ([1]; male, Sprague-Dawley, plasma, iv, 3 mg/kg, IV bolus (3 mg/kg), read-out: Vss) was 1.3 L/kg, the bioavailability ([1]; male, Sprague-Dawley, plasma, oral, 10 mg/kg, PO (10 mg/kg) vs IV, read-out: F (%) oral bioavailability) was 21% and the half-life ([1]; male, Sprague-Dawley, plasma, po, 10 mg/kg, PO (10 mg/kg)) was 25 h. The AUC(0-t) [1, 2] was 21.5 µg·h/mL, the Cmax [1, 2] was 1.4 µg/mL and the Tmax [1, 2] was 1.33 h. The AUC(0-t) [1, 3] was 25.7 µg·h/mL, the clearance [1, 3] was 0.0894 L/h/kg and the C0 ([1]; male, Sprague-Dawley, plasma, IV bolus (3 mg/kg), extrapolated value) was 40.5 µg/mL. It also gave an AUC(0-t) [1, 4] of 18.4 µg·h/mL, a Cmax [1, 4] of 1.06 µg/mL and a Tmax [1, 4] of 3.67 h. The “Vss” value ([1]; IV bolus (3 mg/kg), 3 mg/kg) was 1.32 L/kg, the IV clearance ([1]; IV, in words) was “reasonable” and the “F (%) oral bioavailability” value ([1]; PO (10 mg/kg) vs IV, 10 mg/kg) was 21.4%.
